In brackets after ≈: the same amount, converted by molar mass.
Columns and labels:
UcpA = molecular target: T1, UcpA (Escherichia coli, UniProt P37440, T153Q); format: biochemical; conditions: lysates of induced LY180 (pLOI4856) vs empty vector control, appropriate cofactors
T1 construct: made in house; host or cells: E. coli LY180 (pLOI4856), IPTG-induced; clarified cell lysate, not purified
Description: Cultures were grown overnight to a cell density of approximately 0.66 mg dcw ml^−1 (37° C.) in closed tubes containing 20 ml AM1 (50 g liter^−1 xylose, 0.1 mM IPTG and 12.5 mg liter^−1 ampicillin). Cells were harvested by centrifugation (7,000 g for 5 min, 4° C.), washed twice with 10 ml of cold sodium phosphate buffer (50 mM pH 7.0), resuspended to a cell density of 4.4 mg dcw ml^−1, and disrupted in buffer containing 1 mM dithiothreitol using a Fastprep-24 (MP Biomedicals, Solon, Ohio). After clarification at 13,000 g (10 min, 4° C.), protein concentration was determined using a BCA™ Protein Assay Kit (Thermo Scientific, Rockford, Ill.). Furfural-dependent reduction was measured using NADH and NADPH by monitoring the decrease in absorbance at 340 nm (extinction coefficient of NADH of 6,220 M^−1 cm^−1; extinction coefficient of NADPH of […]). Reaction mixtures contained 200 mM phosphate buffer (pH 7.0), 10 mM furfural, and 0.2 mM NADH or NADPH. NADH-dependent and NADPH-dependent reduction of 5-HMF (10 mM) was measured in a similar fashion.
Additional compounds (ethanol, glycerol, n-butanol, 2-propanol, methanol, acetoin, diacetyl, methyglyoxal, dihydroxyacetone, acetaldehyde, and 1,3-propandiol) were tested as potential substrates for UcpA using appropriate cofactors.

LY180(pTrc99A) = experiment: Furfural toxicity / MIC in tube cultures, vector control; format: cell-based, Escherichia coli
Description: (§1) Furfural toxicity was measured in tube cultures (13 mm by 100 mm) containing 4 ml of AM1 medium with 50 g liter^−1 xylose, 12.5 mg liter^−1 ampicillin, furfural, and other supplements as indicated (Miller et al., 2009a, b). Cultures were inoculated to an initial density of 22 mg dcw liter^−1. IPTG (0.1 mM) was included for fucO induction. Cell mass was measured at 550 nm after incubation for 48 h (37° C.). For cysteine supplement experiment, the culture condition was the same but included 0.1 mM cysteine as an amendment.
(§2) Derivatives of LY180 containing these plasmids were tested for furfural tolerance with (0.1 mM IPTG) and without IPTG induction using an MIC assay (Miller et al., 2009a; Miller et al., 2010; Wang et al., 2011b).

LY180 (pLOI4856) = experiment: Furfural toxicity / MIC in tube cultures, ucpA plasmid; format: cell-based, Escherichia coli
Description: as §1, §2

YqhD = YqhD (Escherichia coli, UniProt Q46856); conditions: read-out: Km for NADPH; cited from earlier work
[1] = Escherichia coli, read-out: MIC for 5-HMF

T1 sequence (P37440 whole entry T153Q): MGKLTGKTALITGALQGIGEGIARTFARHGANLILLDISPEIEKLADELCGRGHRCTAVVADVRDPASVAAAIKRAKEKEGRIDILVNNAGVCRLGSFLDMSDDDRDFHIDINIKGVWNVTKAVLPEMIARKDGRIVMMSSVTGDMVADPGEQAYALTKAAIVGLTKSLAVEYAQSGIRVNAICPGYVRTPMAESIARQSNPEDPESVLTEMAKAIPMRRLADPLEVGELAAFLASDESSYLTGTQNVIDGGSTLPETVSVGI
Chain of YqhD (Q46856 whole entry): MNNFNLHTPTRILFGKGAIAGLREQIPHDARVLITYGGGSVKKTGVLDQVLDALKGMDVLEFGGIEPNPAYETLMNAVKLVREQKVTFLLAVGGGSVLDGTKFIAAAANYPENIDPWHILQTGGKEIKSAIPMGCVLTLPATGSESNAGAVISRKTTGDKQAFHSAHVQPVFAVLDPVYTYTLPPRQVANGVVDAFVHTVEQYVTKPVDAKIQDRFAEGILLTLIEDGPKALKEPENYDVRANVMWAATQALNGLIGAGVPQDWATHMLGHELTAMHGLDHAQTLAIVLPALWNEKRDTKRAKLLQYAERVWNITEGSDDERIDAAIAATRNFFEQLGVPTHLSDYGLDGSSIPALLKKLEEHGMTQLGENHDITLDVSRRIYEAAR

Compound | Metabolism as substrate for UcpA (UcpA) | also measured
OCCCO [1,3-propandiol] | none appeared to be metabolized | –
CC(C)O [2-propanol] | none appeared to be metabolized | –
O=Cc1ccc(CO)o1 [5-HMF, 5-hydroxymethylfurfural] | – | MIC (LY180(pTrc99A); [1]): 16 mM (≈ 2020 µg/mL); MIC (LY180 (pLOI4856); [1]): 20 mM (≈ 2520 µg/mL)
N[C@@H](CS)C(=O)O [L-cysteine, reference compound] | – | Effect of L-cysteine supplement on growth in the presence of furfural (LY180(pTrc99A); 0.1 mM L-cysteine, 10 mM furfural): cell growth was increased; Effect of L-cysteine supplement on growth in the presence of furfural (LY180 (pLOI4856); 0.1 mM L-cysteine, 10 mM furfural, ucpA induced): did not alter the growth
CC=O [acetaldehyde] | none appeared to be metabolized | –
CC(=O)C(C)O (stereo not drawn) [acetoin] | none appeared to be metabolized | –
CC(=O)C(C)=O [diacetyl] | none appeared to be metabolized | –
CCO [ethanol] | none appeared to be metabolized | –
OCC(O)CO [glycerol] | none appeared to be metabolized | –
CO [methanol] | none appeared to be metabolized | –
CCCCO [n-butanol] | none appeared to be metabolized | –
NADPH | – | Km (YqhD): 0.008 mM
methyglyoxal | none appeared to be metabolized | –

Source: US9347077B2, “Over-expression of a putative oxidoreductase (UcpA) for increasing furfural or 5-hydroxymethylfurfural tolerance” (UNIVERSITY OF FLORIDA RESEARCH FOUNDATION, INCORPORATED, priority 2011, dated 2016)
